The values that follow come from patent US20090137572A1, “2-substituted-4-heteroaryl-pyrimidines useful for the treatment of proliferative disorders” (priority 2004, published 2009).

Format in all cases: biochemical
Assay [1] concerns the target T1, protein kinases (panel of Table 4).
T1 construct: other: kinase PKC; ATP 100 μM
Kind of assay: Kinase selectivity profile, kinase inhibition IC50 (Table 4), ATP 100 μM. The following applies: kinase PKC. The procedure: (§1) For the assays shown in Table 3, the kinases were assayed at the following ATP concentrations: SAPK4, PKBΔph, GSK3b, SAPK3, CK2, MKK1, PIM2, IKKB, ERK8, and PRK2 at 5 μM; JNK, PRAK, ROCK-II, SAPK2b, CDK2, CHK1, MSK1, CSK, P70S6K, PKA, CK1, MAPKAP-K2, SGK, PKCa, PDK1, NEK 7, and MAPKAP-K3 at 20 μM; SAPK2a, LCK, AMPK, MAPK2, DYRK1a, MAPKAP-K1a, NEK-6, NEK2a, PBK, CAMK-1, SRPK-1, JNK3, MNK2, RSK2, MNK1, PKBB, and SmMLCK at 50 μM. For the assays in Table 4 the ATP concentration was 100 μM throughout.

The target in assay [2] is T2, protein kinases (panel of Table 4) (Homo sapiens, UniProt P00519).
T2 construct: other: kinase Ab1; ATP 100 μM
Described as above. The following applies: kinase Ab1. The procedure:
as §1

A further assay concerns the target CDK7/cyclin H (Homo sapiens, UniProt P50613). The experiment in a line: CDK 7 assay (CTD peptide substrate). Particulars: read-out: Kinase Inhibition pIC50 CDK7-cyclin H (converted). Summed up:
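Radiometric filter-binding read-out: 32P transferred from 100 μM [γ-32P]ATP to biotinyl-(YSPTSPS)4 CTD peptide. Enzyme 0.5-2 μg recombinant human complex; 20 mM MOPS pH 7.2, 15 mM MgCl2, vanadate, DTT; 45 min, 30° C; avidin bound, P81 plate washed, counted.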

In assay [3] the target is T3, Flt3 (FMS-like tyrosine kinase-3) (Homo sapiens, UniProt P36888).
T3 sequence (P36888 27-993): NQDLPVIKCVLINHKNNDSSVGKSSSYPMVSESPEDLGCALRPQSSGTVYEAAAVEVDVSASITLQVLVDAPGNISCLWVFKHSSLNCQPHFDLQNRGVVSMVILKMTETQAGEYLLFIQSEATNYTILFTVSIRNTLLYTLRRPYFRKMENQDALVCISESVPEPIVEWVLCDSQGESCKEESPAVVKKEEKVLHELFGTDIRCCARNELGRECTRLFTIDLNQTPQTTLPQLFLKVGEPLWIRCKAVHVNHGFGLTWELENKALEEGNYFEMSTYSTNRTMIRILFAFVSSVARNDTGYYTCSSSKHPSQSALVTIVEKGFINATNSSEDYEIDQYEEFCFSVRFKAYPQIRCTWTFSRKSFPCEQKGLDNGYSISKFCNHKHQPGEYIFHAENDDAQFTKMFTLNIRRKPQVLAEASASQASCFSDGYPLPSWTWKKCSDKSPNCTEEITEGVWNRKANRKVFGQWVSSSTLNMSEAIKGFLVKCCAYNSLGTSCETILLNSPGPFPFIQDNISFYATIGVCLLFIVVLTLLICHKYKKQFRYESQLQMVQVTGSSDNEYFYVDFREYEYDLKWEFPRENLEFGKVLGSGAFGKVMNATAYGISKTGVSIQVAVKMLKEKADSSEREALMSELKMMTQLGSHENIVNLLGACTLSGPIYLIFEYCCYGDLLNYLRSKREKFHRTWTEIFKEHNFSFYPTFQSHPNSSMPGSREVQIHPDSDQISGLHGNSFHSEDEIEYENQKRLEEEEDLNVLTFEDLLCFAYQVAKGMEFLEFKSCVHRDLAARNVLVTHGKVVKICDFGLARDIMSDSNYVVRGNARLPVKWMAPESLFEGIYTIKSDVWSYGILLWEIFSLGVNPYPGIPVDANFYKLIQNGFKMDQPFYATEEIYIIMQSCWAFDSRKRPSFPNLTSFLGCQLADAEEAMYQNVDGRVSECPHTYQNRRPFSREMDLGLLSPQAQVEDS
The experiment in a line: Kinase assay (radioactive phosphate incorporation), Flt3. Particulars: pIC50 is -log(IC50, M), read-out: Kinase Inhibition pIC50 Flt3 (converted). Summed up: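 Inhibition was measured as transfer of radiolabelled phosphate from [γ-32P]-ATP (100 μM ATP, 15 mM MgCl2) onto polypeptide substrates by recombinant kinases or kinase complexes. Reactions ran at 30° C in MOPS/β-glycerophosphate buffer, pH 7.4, were stopped on ice and filtered before scintillation counting.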

T2 sequence (P00519 whole entry): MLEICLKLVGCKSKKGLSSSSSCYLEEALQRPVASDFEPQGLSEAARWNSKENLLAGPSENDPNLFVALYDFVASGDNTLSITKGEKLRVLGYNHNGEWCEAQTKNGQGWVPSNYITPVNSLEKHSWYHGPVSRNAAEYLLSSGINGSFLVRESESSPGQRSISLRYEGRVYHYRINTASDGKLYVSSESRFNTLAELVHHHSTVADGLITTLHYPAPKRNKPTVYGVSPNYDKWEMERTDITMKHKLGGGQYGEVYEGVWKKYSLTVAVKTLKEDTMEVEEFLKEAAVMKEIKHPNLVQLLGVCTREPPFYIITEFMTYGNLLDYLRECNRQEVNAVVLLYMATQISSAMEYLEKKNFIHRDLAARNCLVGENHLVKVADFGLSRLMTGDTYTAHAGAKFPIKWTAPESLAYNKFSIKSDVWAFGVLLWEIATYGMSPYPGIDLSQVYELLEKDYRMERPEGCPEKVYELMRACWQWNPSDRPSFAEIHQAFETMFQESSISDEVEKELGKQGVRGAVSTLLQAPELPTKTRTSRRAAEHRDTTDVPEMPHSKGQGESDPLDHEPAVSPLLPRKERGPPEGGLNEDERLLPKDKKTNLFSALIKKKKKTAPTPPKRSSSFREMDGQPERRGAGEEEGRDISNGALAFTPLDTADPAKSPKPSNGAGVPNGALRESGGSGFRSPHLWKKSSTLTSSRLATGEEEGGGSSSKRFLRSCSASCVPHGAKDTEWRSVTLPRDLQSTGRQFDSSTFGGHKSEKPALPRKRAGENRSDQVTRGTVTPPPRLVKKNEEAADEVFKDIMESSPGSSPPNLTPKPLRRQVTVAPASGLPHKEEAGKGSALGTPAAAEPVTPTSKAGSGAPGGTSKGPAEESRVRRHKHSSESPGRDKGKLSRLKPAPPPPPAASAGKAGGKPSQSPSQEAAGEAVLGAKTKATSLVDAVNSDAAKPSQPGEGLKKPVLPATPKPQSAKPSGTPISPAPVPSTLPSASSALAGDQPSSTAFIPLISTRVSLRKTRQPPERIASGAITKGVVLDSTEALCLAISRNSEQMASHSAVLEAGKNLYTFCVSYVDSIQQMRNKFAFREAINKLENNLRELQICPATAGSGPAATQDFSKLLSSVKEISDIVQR
Sequence of CDK7/cyclin H (P50613 whole entry): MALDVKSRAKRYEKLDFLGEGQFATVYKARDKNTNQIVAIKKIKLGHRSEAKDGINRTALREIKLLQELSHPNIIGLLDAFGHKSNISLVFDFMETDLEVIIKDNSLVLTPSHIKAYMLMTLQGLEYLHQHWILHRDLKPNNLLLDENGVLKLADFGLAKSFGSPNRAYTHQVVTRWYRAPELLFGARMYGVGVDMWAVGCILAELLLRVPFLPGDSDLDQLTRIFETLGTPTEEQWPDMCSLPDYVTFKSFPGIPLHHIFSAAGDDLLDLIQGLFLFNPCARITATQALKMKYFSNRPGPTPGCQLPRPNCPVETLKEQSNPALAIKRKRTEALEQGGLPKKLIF
Sequence of CDK7/cyclin H (P51946 whole entry partner): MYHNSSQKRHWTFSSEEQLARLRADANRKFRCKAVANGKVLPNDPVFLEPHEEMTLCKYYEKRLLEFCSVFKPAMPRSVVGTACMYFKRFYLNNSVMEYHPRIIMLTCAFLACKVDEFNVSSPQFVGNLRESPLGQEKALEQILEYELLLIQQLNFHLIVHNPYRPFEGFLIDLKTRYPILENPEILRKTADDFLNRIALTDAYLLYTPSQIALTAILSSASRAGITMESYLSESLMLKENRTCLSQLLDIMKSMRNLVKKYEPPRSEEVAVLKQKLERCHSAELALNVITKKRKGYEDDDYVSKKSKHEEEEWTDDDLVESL

In the case of `CNc1nc(C)c(-c2ccnc(Nc3cccc(S(C)(=O)=O)c3)n2)s1` [Compound 27, (3-Methanesulfonyl-phenyl)-[4-(4-methyl-2-methylamino-thiazol-5-yl)-pyrimidin-2-yl]-amine], the IC50 in assay [1] was more than 10000 nM; in assay [2] it was 2100 nM; at CDK7/cyclin H, 200 nM; in assay [3], 63.1 nM.
Taken in the same sequence, the figures for `CNc1nc(C)c(-c2ccnc(Nc3ccc(C)c(S(=O)(=O)N4CCOCC4)c3)n2)s1` [Compound 37, [4-(4-Methyl-2-methylamino-thiazol-5-yl)-pyrimidin-2-yl]-[4-methyl-3-(morpholine-4-sulfonyl)-phenyl]-amine] were 6400 nM, 3800 nM, 3980 nM and 158 nM.
The like results for `CNc1nc(C)c(-c2ccnc(Nc3cccc(S(N)(=O)=O)c3)n2)s1` [Compound 19, 3-[4-(4-Methyl-2-methylamino-thiazol-5-yl)-pyrimidin-2-ylamino]-benzenesulfonamide] were, in that order, 5500 nM, 370 nM, 50.1 nM and 31.6 nM.
For the compound `CCNc1nc(C)c(-c2ccnc(Nc3ccc(N4CCNCC4)cc3)n2)s1` [Compound 59, [4-(2-Ethylamino-4-methyl-thiazol-5-yl)-pyrimidin-2-yl]-(4-piperazin-1-yl-phenyl)-amine], the IC50 in assay [1] was more than 10000 nM; in assay [2], 470 nM; at CDK7/cyclin H, 126 nM; in assay [3] it was 15.8 nM.
The like results for `Cc1ccc(Nc2nccc(-c3sc(N)nc3C)n2)cc1S(=O)(=O)N1CCOCC1` [Compound 38, [4-(2-Amino-4-methyl-thiazol-5-yl)-pyrimidin-2-yl]-[4-methyl-3-(morpholine-4-sulfonyl)-phenyl]-amine] were, in that order, 2500 nM, 2300 nM, 631 nM and 200 nM.
Take `Cc1nc(CS(=O)(=O)c2cccs2)sc1-c1ccnc(Nc2ccc(N3CCOCC3)cc2)n1` [Compound 138, {4-[4-Methyl-2-(thiophene-2-sulfonylmethyl)-thiazol-5-yl]-pyrimidin-2-yl}-(4-morpholin-4-yl-phenyl)-amine]: at CDK7/cyclin H, the IC50 was 3160 nM.
Take `COCCNS(=O)(=O)c1cccc(Nc2nccc(-c3sc(N)nc3C)n2)c1` [Compound 55, 3-[4-(2-Amino-4-methyl-thiazol-5-yl)-pyrimidin-2-ylamino]-N-(2-methoxy-ethyl)-benzenesulfonamide]: the IC50 in assay [1] was 5800 nM; in assay [2], 2100 nM; at CDK7/cyclin H, 631 nM; in assay [3], 200 nM.
